In US6730665B1, “Treatment of bone cancer” (Mayo Foundation for Medical Education and Research, priority 1999, dated 2004):

Legend:
female Fisher 344 rats = experiment: Cortical bone histomorphometry of rat tibia after oral 2ME; type: in vivo; conditions: 100 mg/kg/day oral gavage 13 days, mean ± SE
Procedure: All studies were approved by the Institutional Animal Care and Use Committee of the Mayo Clinic, Rochester, Minn. Rats were kept in plastic cages (3 per cage) under standard conditions of a 12 hr dark and 12 hr light cycle with food (Purina Laboratory rodent diet 5001, Ralston-Purina, St. Louis, Mo.) and water ad libitum. Rooms were maintained at a temperature of 24° C.
Fluorochromes were given […] tail vein.
Bone histomorphometry Histomorphometric measurements were performed with the OsteoMeasure Analysis System (OsteoMetrics, Atlanta, Ga.), which consisted of a Pentium 1133 computer coupled to a photomicroscope and image analysis system. […] The region of interest was traced, and the line lengths and area bounded by lines were calculated automatically.
Cortical bone measurements Ground transverse sections, cut at a site just proximal to the tibia-fibula synostosis, were prepared for histomorphometric analysis of cortical bone as described by Merriam, G. R. et al., Steroids, 1980, 136: 1-11. The following values were obtained as described by Turner, R. T. et al., Endocrinology, 1998, 139:3712-3720: 1) cross-sectional bone area; 2) medullary area: 3) cortical bone area: 4) periosteal perimeter; 5) endocortical perimeter; 6) periosteal bone formation rate, calculated as the area of bone between the declomycin label given at the start of the experiment and periosteal perimeter divided by the post-labeling period of 11 days; 7) periosteal mineral apposition rate, an index of osteoblast activity which is calculated as the periosteal bone formation rate divided by the label perimeter; and 8) periosteal label perimeter, an index of osteoblast number, defined as the periosteal perimeter labeled with calcein.
Statistical Analvses All values are expressed as mean±standard error (SE). Significant differences between groups were determined by Fisher's Protected Least Significant Difference post hoc test for multiple group comparisons following detection of significance by 1-way ANOVA. Significance was considered at p values ≦0.05.

MG63 cells = experiment: Bone matrix protein mRNA levels by northern blot; type: cell-based, human; conditions: 10 μM
Procedure: Time course effects of 2ME on steady-state mRNA levels for bone matrix proteins were determined. MG63 cells in triplicate cultures were treated with 10 μM 2ME. Cells were harvested at the end of 0, 12, 24 and 72 h of treatment and used for RNA isolation. Total RNA isolated from cells was analyzed by northern blot hybridization. Ten μg of RNA sample were denatured by incubation at 52° C. in a solution of 1M glyoxal, 50% dimethyl sulfoxide, and 0.01 M NaH2PO4, and then separated in a 1% agarose gel. RNA separated in agarose gels was transferred to an Amersham Hybond nylon membrane overnight via capillary action in 20× standard saline citrate (SSC) (1×SSC=0.15 M NaCl and 0.015 M sodium citrate, pH 7.0), sodium citrate buffer. The amounts of RNA loaded and transferred were assessed by methylene blue staining of the membranes and hybridization with a [^32P]-labeled cDNA for 18S ribosomal RNA. Membranes were prehybridized for 2 h at 65° C. in buffer containing 50% deionized formamide, 10% dextran sulfate, 5×SSC, 100 μg/ml of heat-denatured single-strand salmon sperm DNA, and 2× Denhardts solution. Hybridization was conducted for 80 min in a buffer containing the above ingredients in addition to a minimum of 10^6 cpm per mL [^32P]-labeled cDNA probe. Labeled type I collagen and osteonectin cDNA were used for probing the blots. The cDNA probes were labeled by random sequence hexanucleotide primer extension using the Megaprime DNA labeling kit from Amersham (Arlington Heights, Ill.). The membranes were washed for 30 min at 45° C. in 2×SSC and for 15 to 60 min in 0.1×SSC at 45° C. The resulting radioactive mRNA bands on the blots were quantitated by Phosphorimager (Molecular Dynamics, Sunnyvale, Calif.).

## COc1cc2c(cc1O)CC[C@@H]1[C@@H]2CC[C@]2(C)[C@@H](O)CC[C@@H]12 [2ME, 2-methoxyestradiol]
Female Fisher 344 rats; cortical (periosteal) bone
  Bone Formation Rate: 5.32 ± 0.47 mm^2 × 10^−3/day
  Mineral Apposition Rate: 1.34 ± 0.06 μm/day
Female Fisher 344 rats; cortical bone, tibia
  Cortical Area: 2.28 ± 0.03
  Cross-sectional area: 2.98 ± 0.04 mm^2
  Medullary Area: 0.70 ± 0.02 mm^2
MG63 cells; 12 h
  decrease in osteonectin mRNA level: 50%
  decrease in type 1 collagen mRNA level: 26%
MG63 cells; 24 h
  decrease in osteonectin mRNA level: 38%
  decrease in type 1 collagen mRNA level: 37%
MG63 cells; 72 h
  mRNA levels for the bone matrix proteins (in words): returned to normal levels
